We go through twelve molecules from ChEMBL document CHEMBL1201862, “PubChem BioAssay data set” (2004).

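Cultured in 96-well plates, cells were exposed to test compound for 48 hours across five concentrations. GI50 = concentration required for 50% inhibition of growth.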 Calls of active or inactive are those of the source. Rule as the data show it: active = GI50 up to about 1.1 µM and inactive = higher.

Some test systems named below: SNB-75; MCF7; HCT-15; UO-31; HCT-116; MDA-N; SN12C; HL-60; ACHN; SW-620; U-251; UACC-257; SK-MEL-28; HOP-92; PC-3; UACC-62; TK-10; T47D; SK-MEL-2.
What all share (test): NCI tumour cell line growth inhibition, 48 h

`Cc1ccc2oc(=O)c(C(=O)Nc3nc(C45CC6CC(CC(C6)C4)C5)cs3)cc2c1`: the GI50 with SNB-75 is > 100 µM (inactive); with MCF7, > 100 µM (inactive); in the experiment on HCT-15, more than 100 µM; with UO-31, > 100 µM (inactive); in the experiment on HCT-116 it was > 100 µM (inactive); with MDA-N, > 100 µM (inactive). For the same molecule, the GI50 in the experiment with SN12C, in the experiment with HL-60, with ACHN, in the experiment with SW-620, in the experiment with U-251 and in the experiment with UACC-257 was > 100 µM (inactive) throughout. Besides, the GI50 with SK-MEL-28, in the experiment on HOP-92 and in the experiment with PC-3 was > 100 µM (inactive) in each case.
Turning to `O=C(CSCC(=O)N/N=C/c1ccc2c(c1)OCO2)N/N=C/c1ccc2c(c1)OCO2`, the GI50 with SNB-75 was > 100 µM (inactive); in the experiment on MCF7, 63 µM (inactive); with UACC-62, 52.6 µM (inactive); in the experiment on TK-10, > 100 µM (inactive); in the experiment on HCT-15 it was more than 100 µM; in the experiment with UO-31, > 100 µM (inactive). Besides, the GI50 in the experiment on HCT-116 is 85.7 µM (inactive); with SN12C, > 100 µM (inactive); in the experiment on HL-60, 58.9 µM (inactive); in the experiment on T47D, 55.5 µM (inactive); in the experiment on ACHN, > 100 µM (inactive); in the experiment on SW-620 it was > 100 µM (inactive). Moreover, the GI50 in the experiment with U-251 is > 100 µM (inactive); with UACC-257, 30.3 µM (inactive); with SK-MEL-28, > 100 µM (inactive); in the experiment with HOP-92, > 100 µM (inactive); with SK-MEL-2, > 100 µM (inactive); in the experiment on PC-3 it was 40.6 µM (inactive).
In the case of `COC(=O)C1=C(C)NC2(O)C=CC(=O)C3C(=O)N(c4ccccc4)C(=O)C132` (centres undefined), the GI50 in the experiment on SNB-75 is > 100 µM (inactive); with MCF7 it was > 100 µM (inactive); in the experiment on UACC-62, 97.1 µM (inactive); in the experiment with TK-10, > 100 µM (inactive); in the experiment on HCT-15 it was 63 µM; with UO-31 it was > 100 µM (inactive). For the same molecule, the GI50 with HCT-116 is 73.6 µM (inactive); with SN12C it was > 100 µM (inactive); in the experiment on HL-60, 63.8 µM (inactive); with T47D, 36.8 µM (inactive); in the experiment with ACHN, > 100 µM (inactive); with SW-620, 56.5 µM (inactive). In addition, the GI50 in the experiment with U-251 is > 100 µM (inactive); with UACC-257, 90.8 µM (inactive); with SK-MEL-28 it was 32.5 µM (inactive); with HOP-92 it was 37.3 µM (inactive); in the experiment with SK-MEL-2, > 100 µM (inactive); in the experiment on PC-3, > 100 µM (inactive).
Turning to `O=C(CCc1ccccc1CO)NCCc1ccccc1`, the GI50 in the experiment on SNB-75 was 49.1 µM (inactive); in the experiment with MCF7 it was > 100 µM (inactive); with UACC-62, > 100 µM (inactive); in the experiment on TK-10, > 100 µM (inactive); in the experiment on HCT-15 it was more than 100 µM; in the experiment on UO-31, 36.5 µM (inactive). For the same molecule, the GI50 in the experiment with HCT-116 is > 100 µM (inactive); in the experiment on SN12C it was > 100 µM (inactive); in the experiment with HL-60 it was 72.4 µM (inactive); in the experiment with T47D it was > 100 µM (inactive); in the experiment on ACHN, > 100 µM (inactive); with SW-620, > 100 µM (inactive). For the same molecule, the GI50 in the experiment on U-251, with UACC-257, in the experiment on SK-MEL-28, in the experiment on HOP-92, with SK-MEL-2 and in the experiment on PC-3 was > 100 µM (inactive) in each case.
Take `CC[C@H]1C=CCC[C@@]2(C[C@@H]3CC[C@H]4[C@H](C(=O)OCCCCCCCCCCCCCCCC(=O)N(CCCN)C[C@@H](O)CCN)[C@]5(CCC[C@@H](C)O5)NC(=[N+]34)N2)O1`: the GI50 in the experiment on MCF7 was 0.421 µM (active); in the experiment on UACC-62 it was 0.202 µM (active); with TK-10, 1.46 µM (inactive); in the experiment with HCT-15, 0.723 µM; with UO-31, 0.471 µM (active); with HCT-116 it was 0.344 µM (active). Further, the GI50 is 0.407 µM (active) in the experiment on MDA-N; 0.776 µM (active) in the experiment with SN12C; 0.345 µM (active) with HL-60; 0.513 µM (active) in the experiment on ACHN; 0.604 µM (active) in the experiment on SW-620; 0.378 µM (active) with U-251. For the same molecule, the GI50 with UACC-257 is 0.604 µM (active); with SK-MEL-28, 1.28 µM (inactive); with HOP-92 it was 0.318 µM (active); with SK-MEL-2, 0.53 µM (active); with PC-3 it was 0.7 µM (active).
Regarding `CC(=O)c1cc2c(s1)C(=O)c1sccc1C2=O`, the GI50 in the experiment on SNB-75 was 0.0204 µM (active); in the experiment with MCF7, 0.0301 µM (active); with UACC-62, 0.0333 µM (active); with TK-10, 0.212 µM (active); in the experiment with HCT-15, 0.0214 µM; in the experiment on UO-31, 0.0314 µM (active). Further, the GI50 in the experiment on HCT-116 was 0.0698 µM (active); in the experiment with SN12C it was 0.0156 µM (active); with T47D, 0.222 µM (active); in the experiment with ACHN, 0.0209 µM (active); in the experiment with SW-620, 0.0569 µM (active); in the experiment with U-251, 0.017 µM (active). In addition, the GI50 with UACC-257 was 0.0146 µM (active); in the experiment on SK-MEL-28, 0.014 µM (active); with HOP-92, 0.294 µM (active); in the experiment on SK-MEL-2, 0.076 µM (active); in the experiment on PC-3, 0.0568 µM (active).
Consider `C=C1CC2OC(=O)C(=C)C2C(O)C2C(=C)CCC12` (centres undefined), for which the GI50 is 9.86 µM (inactive) in the experiment on SNB-75; 3.48 µM (inactive) in the experiment with UACC-62; 14.8 µM (inactive) in the experiment with TK-10; 16.1 µM (inactive) in the experiment with UO-31; 3.62 µM (inactive) with HCT-116; 5.73 µM (inactive) in the experiment with SN12C. Besides, the GI50 in the experiment with HL-60 was 1.89 µM (inactive); in the experiment with ACHN it was 9.04 µM (inactive); in the experiment with SW-620, 3.82 µM (inactive); in the experiment on U-251, 16.8 µM (inactive); in the experiment with UACC-257 it was 4.2 µM (inactive); in the experiment on SK-MEL-28, 7.28 µM (inactive). The GI50 in the experiment with HOP-92 was 2.06 µM (inactive); in the experiment with SK-MEL-2 it was 15.7 µM (inactive).
In the case of `CCCc1ccc(OCC(=O)N/N=C/c2c(-c3ccccc3)[nH]c3ccccc23)cc1`, the GI50 was 19.2 µM (inactive) in the experiment with SNB-75; 4.57 µM (inactive) in the experiment with MCF7; 11.9 µM (inactive) in the experiment with UACC-62; 17.1 µM (inactive) with TK-10; 4.99 µM with HCT-15; 24 µM (inactive) with UO-31. In addition, the GI50 in the experiment on HCT-116 was 8.97 µM (inactive); with SN12C, 14 µM (inactive); in the experiment with HL-60, 3.96 µM (inactive); with T47D, 5.77 µM (inactive); with ACHN it was 13.1 µM (inactive); in the experiment with SW-620 it was 10.6 µM (inactive). The GI50 is 6.19 µM (inactive) in the experiment with U-251; 15.4 µM (inactive) in the experiment with UACC-257; 20.1 µM (inactive) with SK-MEL-28; 13.7 µM (inactive) in the experiment with HOP-92; 3.23 µM (inactive) in the experiment on SK-MEL-2; 5.98 µM (inactive) with PC-3.
For `COc1cccc(/C=C2\CCCc3ccccc3C2=O)c1`, the GI50 was 23.4 µM (inactive) with SNB-75; 13.6 µM (inactive) in the experiment on MCF7; 12.9 µM (inactive) in the experiment on UACC-62; 26.4 µM (inactive) with TK-10; 10.9 µM in the experiment on HCT-15; 15.1 µM (inactive) in the experiment on UO-31. Further, the GI50 in the experiment with HCT-116 is 13.3 µM (inactive); in the experiment on SN12C, 16.1 µM (inactive); in the experiment with HL-60 it was 13.8 µM (inactive); in the experiment with ACHN, 26.4 µM (inactive); with SW-620, 17.3 µM (inactive); with U-251 it was 15 µM (inactive). For the same molecule, the GI50 in the experiment on UACC-257 was 15.2 µM (inactive); in the experiment with SK-MEL-28 it was 18.1 µM (inactive); in the experiment with HOP-92 it was 13.4 µM (inactive); with SK-MEL-2 it was 13.8 µM (inactive); in the experiment with PC-3 it was 16.2 µM (inactive).
As to `O=C1C2C3C=C4c5ccccc5N(c5ccccc5)C4([C@@H]2C(=O)N1c1ccc(F)cc1)[C@H]1C(=O)N(c2ccc(F)cc2)C(=O)[C@@H]31` (some centres undefined), the GI50 was > 100 µM (inactive) with SNB-75; > 100 µM (inactive) in the experiment on TK-10; more than 100 µM with HCT-15; 20.9 µM (inactive) in the experiment with UO-31; 82 µM (inactive) in the experiment on SN12C; > 100 µM (inactive) with HL-60. Further, the GI50 with ACHN, with SW-620, in the experiment with U-251, with UACC-257, with SK-MEL-28 and with HOP-92 was > 100 µM (inactive) in each case. Moreover, the GI50 in the experiment with SK-MEL-2 is > 100 µM (inactive).
On to `Cc1cccc(NS(=O)(=O)c2ccc(/N=N/c3c(O)c(C(=O)O)cc4ccccc34)cc2)n1`, for which the GI50 is > 100 µM (inactive) in the experiment on SNB-75; > 100 µM (inactive) in the experiment on MCF7; > 100 µM (inactive) with UACC-62; > 100 µM (inactive) in the experiment on TK-10; more than 100 µM in the experiment with HCT-15; > 100 µM (inactive) in the experiment with UO-31. Besides, the GI50 with HCT-116, in the experiment with HL-60, with ACHN, in the experiment on SW-620, in the experiment on U-251 and with UACC-257 was > 100 µM (inactive) in each case. For the same molecule, the GI50 in the experiment with SK-MEL-28, in the experiment on HOP-92, in the experiment on SK-MEL-2 and in the experiment with PC-3 was > 100 µM (inactive) throughout.
`NN/C(=N\S(=O)(=O)c1cc2ccccc2s1)Nc1ccc(Cl)cc1`: the GI50 in the experiment with SNB-75 was 20.6 µM (inactive); with MCF7, 20.2 µM (inactive); in the experiment with UACC-62, 17.5 µM (inactive); in the experiment on TK-10, 23 µM (inactive); in the experiment on HCT-15 it was 30.5 µM; in the experiment with UO-31 it was 18 µM (inactive). Further, the GI50 was 16.9 µM (inactive) in the experiment on HCT-116; 22 µM (inactive) in the experiment on SN12C; 22.4 µM (inactive) in the experiment with HL-60; 17.8 µM (inactive) with T47D; 23.1 µM (inactive) in the experiment on ACHN; 23.1 µM (inactive) with SW-620. Further, the GI50 was 17.7 µM (inactive) in the experiment with U-251; 18.5 µM (inactive) in the experiment with UACC-257; 25.1 µM (inactive) in the experiment with SK-MEL-28; 19 µM (inactive) with HOP-92; 18.1 µM (inactive) in the experiment on SK-MEL-2; 22.2 µM (inactive) in the experiment with PC-3.
